Assay results reported in patent US20180193330A1, “ALKYLATED TETRAHYDROISOQUINOLINES FOR BINDING TO CENTRAL NERVOUS SYSTEM RECEPTORS” (Florida A&M University, priority 2017, published 2018).
Structures can show the parent of a compound that is named as a salt. Where two headings read alike, the source gives them in different places. Each block holds one compound with its values, some of them ahead of it.

Legend:
histamine H1 receptor = histamine H1 receptor (Homo sapiens, UniProt P35367); experiment: Receptor binding affinity at histamine H1 (NIMH-PDSP radioligand binding); conditions: for pKi ± SEM H1: Table 4, Group 2 analogs
histamine H1 receptor, sequence (P35367 whole entry, species assumed): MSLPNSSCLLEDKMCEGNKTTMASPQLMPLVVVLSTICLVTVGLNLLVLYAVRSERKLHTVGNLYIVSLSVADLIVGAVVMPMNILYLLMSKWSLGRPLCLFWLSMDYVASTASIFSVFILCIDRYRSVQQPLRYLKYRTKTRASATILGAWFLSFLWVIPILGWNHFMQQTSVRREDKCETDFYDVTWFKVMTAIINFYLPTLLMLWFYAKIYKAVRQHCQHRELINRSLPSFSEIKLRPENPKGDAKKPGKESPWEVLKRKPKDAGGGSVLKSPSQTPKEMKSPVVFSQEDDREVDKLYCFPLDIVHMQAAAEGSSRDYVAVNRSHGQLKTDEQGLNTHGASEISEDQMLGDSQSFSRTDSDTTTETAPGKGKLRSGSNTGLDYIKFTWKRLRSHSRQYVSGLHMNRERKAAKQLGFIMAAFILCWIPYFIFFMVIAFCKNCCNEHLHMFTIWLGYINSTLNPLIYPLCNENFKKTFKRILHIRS

5-HT1A receptor = target: T1, 5-HT1A receptor (Homo sapiens, UniProt P08908); experiment: Receptor binding affinity at 5-HT1A (NIMH-PDSP radioligand binding)
T1 sequence (P08908 1-422): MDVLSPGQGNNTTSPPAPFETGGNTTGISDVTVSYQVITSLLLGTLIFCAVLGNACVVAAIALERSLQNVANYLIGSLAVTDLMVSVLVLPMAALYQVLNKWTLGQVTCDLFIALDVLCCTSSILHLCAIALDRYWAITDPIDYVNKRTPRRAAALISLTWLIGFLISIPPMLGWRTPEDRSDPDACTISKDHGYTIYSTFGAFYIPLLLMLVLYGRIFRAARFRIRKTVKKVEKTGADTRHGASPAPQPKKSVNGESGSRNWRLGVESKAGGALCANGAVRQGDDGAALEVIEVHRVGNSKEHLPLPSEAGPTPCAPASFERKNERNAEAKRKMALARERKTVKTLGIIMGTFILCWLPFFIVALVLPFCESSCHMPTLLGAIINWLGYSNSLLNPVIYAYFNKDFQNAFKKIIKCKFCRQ

5-HT7 receptor = 5-HT7 receptor (Homo sapiens, UniProt P34969); experiment: Receptor binding affinity at 5-HT7 (NIMH-PDSP radioligand binding)
5-HT7 receptor, sequence (P34969 whole entry): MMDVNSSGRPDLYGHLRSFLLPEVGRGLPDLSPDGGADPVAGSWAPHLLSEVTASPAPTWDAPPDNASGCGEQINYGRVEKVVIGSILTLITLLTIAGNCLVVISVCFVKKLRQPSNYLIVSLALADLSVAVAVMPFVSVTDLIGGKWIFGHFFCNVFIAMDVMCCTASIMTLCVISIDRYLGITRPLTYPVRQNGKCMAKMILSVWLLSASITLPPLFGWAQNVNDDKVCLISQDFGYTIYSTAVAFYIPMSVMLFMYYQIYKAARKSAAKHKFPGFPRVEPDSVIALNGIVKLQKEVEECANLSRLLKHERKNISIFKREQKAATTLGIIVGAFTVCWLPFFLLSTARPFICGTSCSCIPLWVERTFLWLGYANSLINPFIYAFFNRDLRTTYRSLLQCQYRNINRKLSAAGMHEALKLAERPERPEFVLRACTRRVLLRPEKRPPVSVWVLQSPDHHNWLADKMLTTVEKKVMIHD

D4 receptor = target: T2, D4 receptor (Homo sapiens, UniProt P21917); experiment: Receptor binding affinity at dopamine D4 (NIMH-PDSP radioligand binding)
T2 sequence (P21917 1-419): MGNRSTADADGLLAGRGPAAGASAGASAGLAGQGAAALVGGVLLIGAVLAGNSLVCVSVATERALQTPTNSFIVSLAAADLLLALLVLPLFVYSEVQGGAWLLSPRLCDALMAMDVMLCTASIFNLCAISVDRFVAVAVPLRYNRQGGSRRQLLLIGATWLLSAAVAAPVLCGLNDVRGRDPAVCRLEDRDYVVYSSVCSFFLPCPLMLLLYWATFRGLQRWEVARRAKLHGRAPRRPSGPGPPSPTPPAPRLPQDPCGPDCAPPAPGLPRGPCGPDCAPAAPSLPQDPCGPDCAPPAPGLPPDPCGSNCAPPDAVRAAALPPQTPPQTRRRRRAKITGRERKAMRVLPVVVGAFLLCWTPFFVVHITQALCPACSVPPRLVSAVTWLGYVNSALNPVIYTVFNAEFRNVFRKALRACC

5-HT2B receptor = 5-HT2B receptor (Homo sapiens, UniProt P41595); experiment: Receptor binding affinity at 5-HT2B (NIMH-PDSP radioligand binding)
5-HT2B receptor, sequence (P41595 whole entry): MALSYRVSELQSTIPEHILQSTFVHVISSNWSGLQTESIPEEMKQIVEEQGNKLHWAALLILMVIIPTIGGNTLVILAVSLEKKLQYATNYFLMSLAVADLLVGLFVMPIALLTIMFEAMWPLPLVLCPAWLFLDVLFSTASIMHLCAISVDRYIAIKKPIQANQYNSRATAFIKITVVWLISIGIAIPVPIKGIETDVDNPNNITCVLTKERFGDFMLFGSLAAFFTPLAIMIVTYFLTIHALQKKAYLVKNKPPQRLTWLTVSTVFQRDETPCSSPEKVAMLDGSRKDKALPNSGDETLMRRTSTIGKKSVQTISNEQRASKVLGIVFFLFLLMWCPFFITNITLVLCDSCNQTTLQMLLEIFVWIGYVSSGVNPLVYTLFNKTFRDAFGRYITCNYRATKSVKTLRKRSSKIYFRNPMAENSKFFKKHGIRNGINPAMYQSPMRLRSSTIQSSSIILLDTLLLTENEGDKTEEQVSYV

5-HT2A receptor = 5-HT2A receptor (Homo sapiens, UniProt P28223); experiment: Receptor binding affinity at 5-HT2A (NIMH-PDSP radioligand binding); conditions: Table 4, Group 2 analogs
5-HT2A receptor, sequence (P28223 whole entry): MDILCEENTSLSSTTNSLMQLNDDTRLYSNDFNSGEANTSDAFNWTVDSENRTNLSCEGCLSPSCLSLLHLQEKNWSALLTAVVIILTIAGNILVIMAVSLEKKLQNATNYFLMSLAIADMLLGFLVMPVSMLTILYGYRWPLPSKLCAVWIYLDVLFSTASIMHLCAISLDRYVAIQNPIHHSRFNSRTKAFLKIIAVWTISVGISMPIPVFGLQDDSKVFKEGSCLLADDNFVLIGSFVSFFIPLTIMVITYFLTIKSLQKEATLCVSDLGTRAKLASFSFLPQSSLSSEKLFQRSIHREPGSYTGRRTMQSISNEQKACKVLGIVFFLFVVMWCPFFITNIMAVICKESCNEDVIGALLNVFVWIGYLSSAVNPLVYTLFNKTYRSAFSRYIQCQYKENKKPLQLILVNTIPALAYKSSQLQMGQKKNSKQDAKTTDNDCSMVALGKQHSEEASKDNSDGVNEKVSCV

5-HT2C receptor = target: T3, 5-HT2C receptor (Homo sapiens, UniProt P28335); experiment: Receptor binding affinity at 5-HT2C (NIMH-PDSP radioligand binding)
T3 sequence (P28335 33-458): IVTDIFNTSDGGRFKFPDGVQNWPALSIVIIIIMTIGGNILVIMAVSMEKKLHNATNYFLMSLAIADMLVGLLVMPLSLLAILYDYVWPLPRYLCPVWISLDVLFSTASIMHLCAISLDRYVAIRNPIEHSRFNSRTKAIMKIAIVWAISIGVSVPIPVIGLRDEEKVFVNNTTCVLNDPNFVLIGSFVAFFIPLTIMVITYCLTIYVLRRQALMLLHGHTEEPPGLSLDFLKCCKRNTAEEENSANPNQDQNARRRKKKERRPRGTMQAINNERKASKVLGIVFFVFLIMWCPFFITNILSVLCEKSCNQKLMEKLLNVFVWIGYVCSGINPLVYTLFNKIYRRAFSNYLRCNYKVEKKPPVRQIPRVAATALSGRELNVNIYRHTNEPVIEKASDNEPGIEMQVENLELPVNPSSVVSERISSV

D3 receptor = D3 receptor (Homo sapiens, UniProt P35462); experiment: Receptor binding affinity at dopamine D3 (NIMH-PDSP radioligand binding); conditions: Table 4, Group 2 analogs
D3 receptor, sequence (P35462 whole entry): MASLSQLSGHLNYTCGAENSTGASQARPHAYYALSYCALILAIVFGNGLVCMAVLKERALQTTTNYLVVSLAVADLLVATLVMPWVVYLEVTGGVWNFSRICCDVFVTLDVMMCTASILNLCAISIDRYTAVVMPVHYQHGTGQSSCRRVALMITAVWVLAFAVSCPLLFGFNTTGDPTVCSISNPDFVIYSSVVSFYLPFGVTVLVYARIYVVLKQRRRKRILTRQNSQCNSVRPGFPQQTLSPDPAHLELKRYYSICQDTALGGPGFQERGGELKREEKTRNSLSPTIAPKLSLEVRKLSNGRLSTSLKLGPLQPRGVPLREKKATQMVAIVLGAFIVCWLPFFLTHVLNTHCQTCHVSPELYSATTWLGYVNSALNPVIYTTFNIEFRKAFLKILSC

D2 receptor = D2 receptor (Homo sapiens, UniProt P14416); experiment: Receptor binding affinity at dopamine D2 (NIMH-PDSP radioligand binding); conditions: Table 6, FIG. 23 compounds
D2 receptor, sequence (P14416 whole entry): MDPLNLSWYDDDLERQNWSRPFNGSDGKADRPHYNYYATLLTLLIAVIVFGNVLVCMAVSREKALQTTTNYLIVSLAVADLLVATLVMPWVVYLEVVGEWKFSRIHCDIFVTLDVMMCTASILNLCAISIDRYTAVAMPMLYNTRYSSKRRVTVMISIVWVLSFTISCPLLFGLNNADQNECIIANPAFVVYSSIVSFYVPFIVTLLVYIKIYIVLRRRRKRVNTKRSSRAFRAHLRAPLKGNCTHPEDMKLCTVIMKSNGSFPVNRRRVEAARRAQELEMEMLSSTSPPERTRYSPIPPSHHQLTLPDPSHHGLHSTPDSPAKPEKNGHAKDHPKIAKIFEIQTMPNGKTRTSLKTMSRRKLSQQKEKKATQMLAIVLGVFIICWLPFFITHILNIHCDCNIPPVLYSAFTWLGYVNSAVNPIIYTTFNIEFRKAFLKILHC

[1] = Table 1, FIG. 7 analogs, read-out: Ki 5-HT2C

Compound: C1=C(CCN2CCc3ccccc3C2)CCc2ccccc21 [Compound 2b, 2-(2-(3,4-dihydronaphthalen-2-yl)ethyl)-1,2,3,4-tetrahydroisoquinoline]
- pKi ± SEM H1 (histamine H1 receptor): (5.84 ± 0.07)
- Ki (5-HT1A receptor; Table 4, Group 2 analogs): 138 nM
- Ki (5-HT7 receptor; Table 4, Group 2 analogs): 65 nM
- pKi ± SEM 5-HT7 (5-HT7 receptor; Table 4, Group 2 analogs): (7.18 ± 0.07)
- pKi ± SEM D4 (D4 receptor; Table 4, Group 2 analogs): (6.85 ± 0.05)
- Ki (5-HT2B receptor): 126 nM
- pKi ± SEM 5-HT2A (5-HT2A receptor): (6.01 ± 0.09)
- pKi ± SEM 5-HT2C (5-HT2C receptor; Table 4, Group 2 analogs): (5.54 ± 0.07)
- Ki (D3 receptor): 184 nM
- pKi ± SEM D3 (D3 receptor): (6.73 ± 0.04)

Compound: Clc1ccc(C(=CCCN2CCc3ccccc3C2)c2ccc(Cl)cc2)cc1 [Compound 2c, 2-(4,4-Bis(4-chlorophenyl)but-3-en-1-yl)-1,2,3,4-tetrahydroisoquinineol hydrobromide]
- pKi ± SEM H1 (histamine H1 receptor): (6 ± 0.07)
- pKi ± SEM 5-HT7 (5-HT7 receptor; Table 4, Group 2 analogs): (6.3 ± 0.07)
- Ki (5-HT2C receptor; Table 4, Group 2 analogs, read-out: Ki 5-HT2C): 2030 nM
- Ki (D3 receptor): 150 nM
- pKi ± SEM D3 (D3 receptor): (6.8 ± 0.1)

Compound: O=C1c2ccccc2C(=O)N1CCCCN1Cc2ccccc2C1 [Compound 3, 2-(4-(Isoindolin-2-yl)butyl)isoindoline-1,3-dione]
- Ki H1 (histamine H1 receptor): MTA (MTA = Missed 50% of threshold inhibition.)
- Ki 5-HT1A (5-HT1A receptor): MTA (MTA = Missed 50% of threshold inhibition.)

Compound: Clc1ccc(C(=CCCN2CCc3ccccc3C2)c2ccc(Cl)cc2)cc1 (as salt: HBr) [Compound 2c, 2-(4,4-Bis(4-chlorophenyl)but-3-en-1-yl)-1,2,3,4-tetrahydroisoquinineol hydrobromide]
- melting point: 215 to 216 °C

Compound: O=C(CCCN1CCCc2ccccc21)c1ccc(Cl)cc1 [Compound 3c, 1-(4-Chlorophenyl)-4-(3,4-dihydroquinolin-1(2H)-yl) butan-1-one]
- melting point: 192 to 193 °C
- Ki (5-HT2C receptor; read-out: Ki 5-HT2C): > 10000 nM

- Ki (5-HT2C receptor; [1]): 8.2 nM
Compound: O=C(CCCN1CCc2ccccc2C1)c1ccc(O)cc1 [Compound 15, 4-(3,4-Dihydroisoquinolin-2(1H)-yl)-1-(4-hydroxyphenyl) butan-1-one hydrochloride]

Compound: 2-(3-(4-Fluorophenoxy)propyl)-1,2,3,4-tetrahydroisoquinoline hydrochloride [Compound 7]
- Ki (5-HT7 receptor; Table 6, FIG. 23 compounds): 26 nM
- pKi ± SEM 5-HT7 (5-HT7 receptor; Table 6, FIG. 23 compounds): (7.59 ± 0.05)
- Ki (D4 receptor; Table 6, FIG. 23 compounds): 193 nM
- pKi ± SEM D4 (D4 receptor; Table 6, FIG. 23 compounds): (6.71 ± 0.05)
- Ki (D2 receptor): 1080 nM
- Ki (5-HT2C receptor; Table 6, FIG. 23 compounds, read-out: Ki 5-HT2C): 2850 nM

Compound: CC1(C)CC(=O)N(CCCCN2CCc3ccccc3C2)C(=O)C1.Cl [Compound 2d, 1-(4-(3,4-dihydroisoquinolin-2(1H)-yl)butyl)-4,4-dimethylpiperidine-2,6-dione hydrochloride]
- Ki (D3 receptor): 1640 nM
- pKi ± SEM D3 (D3 receptor): (5.8 ± 0.1)

- Ki (5-HT2C receptor; [1]): 23 nM
- Ki (5-HT2C receptor; Table 1, FIG. 7 analogs, read-out: pKi 5-HT2C (converted)): 28.8 nM
Compound: NC(=O)c1ccc(C(=O)CCCN2CCc3ccccc3C2)cc1 [Compound 13, 4-(4-(3,4-Dihydroisoquinolin-2(1H)-yl)butanoyl)benzamide]

Compound: Cl.O=C(CCCN1CCc2ccccc2C1)c1ccc(Cl)cc1 [Compound 16, 1-(4-Chlorophenyl)-4-(3,4-dihydroisoquinolin-2(1H)-yl) butan-1-one hydrochloride]
- melting point: 209 to 210 °C
